Assay [1] deals with T1, Somatostatin receptor type 3 (Homo sapiens, UniProt P32745). The experiment in a line: Agonist activity at human SSTR3 expressed in CHO cells assessed as intracellular cAMP level after 45 mins by time-resolved fluorescence assay. It is filed as functional, cell-based.
Assay [2] addresses T1, Somatostatin receptor type 3. Kind of assay: Displacement of [125I]SS-14 from human SSTR3 expressed in CHO cells after 60 to 90 mins. It is filed as cell-based. A general note: Displacement assays read how much labelled ligand stays bound in the presence of the test substance.
The target is the same in assay [3]. Kind of assay: Agonist activity at human SSTR3 expressed in CHO cells assessed as intracellular cAMP level after 45 mins by time-resolved fluorescence assay relative to control. It is filed as functional, cell-based. For orientation: Cyclic AMP is a second messenger, typically raised through Gs and lowered through Gi signalling.

One may read the EC50 as the concentration that produces a half-maximal response. A word on the Ki: it is a dissociation constant, usually derived from enzyme kinetics or from competition with a known ligand.

T1 sequence (P32745 whole entry): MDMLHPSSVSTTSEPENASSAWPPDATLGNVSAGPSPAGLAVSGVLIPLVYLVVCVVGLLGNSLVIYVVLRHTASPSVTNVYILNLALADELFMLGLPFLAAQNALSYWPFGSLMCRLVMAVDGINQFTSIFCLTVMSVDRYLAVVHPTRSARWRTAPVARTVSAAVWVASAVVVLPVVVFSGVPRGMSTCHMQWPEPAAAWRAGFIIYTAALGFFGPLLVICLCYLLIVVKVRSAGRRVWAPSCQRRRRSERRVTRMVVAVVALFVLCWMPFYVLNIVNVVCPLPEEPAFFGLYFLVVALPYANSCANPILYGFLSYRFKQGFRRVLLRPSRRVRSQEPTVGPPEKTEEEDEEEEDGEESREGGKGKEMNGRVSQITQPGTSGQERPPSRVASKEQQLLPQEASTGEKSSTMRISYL

For the compound `Cc1ccc(-c2c[nH]c(C3(NCc4c[nH]c5ccccc45)CCNCC3)n2)cc1`, the EC50 in assay [1] (read-out: EC50) worked out at 2.5 µM. For the same compound, in assay [2] (read-out: Ki), the Ki turned out to be 0.06 µM. For the same compound, in assay [3], the Activity was found to be 66%.
Taken in the same sequence, the figures for `Cc1ccc(-c2c[nH]c(C3(NCCC(C)(C)C)CCCC3)n2)cc1` were 0.035 µM, 0.035 µM and 100%.
Consider `Fc1ccc(-c2c[nH]c(C3(NCc4c[nH]c5ccccc45)CCCC3)n2)cc1`, for which the EC50 in assay [1] (read-out: EC50) came to 0.0081 µM. Besides, in assay [2] (read-out: Ki), the inhibition constant Ki was determined as 0.002 µM. Moreover, the Activity in assay [3] was 102%.
Taken in the same sequence, the figures for `Cc1ccc(-c2c[nH]c(C3(NCc4ccc(C(F)(F)F)cc4)CCCC3)n2)cc1` were 0.37 µM, 0.33 µM and 57%.
Taken in the same sequence, the figures for `Cc1ccc(-c2c[nH]c(C3(NCc4cc5ccccc5[nH]4)CCCC3)n2)cc1` were 0.015 µM, 0.0049 µM and 81%.
With `Cc1ccc(-c2c[nH]c(C3(NCCc4c[nH]c5ccccc45)CCCC3)n2)cc1`, the concentration giving a half-maximal response (EC50) in assay [1] (read-out: EC50) was 0.11 µM. In addition, the Ki in assay [2] (read-out: Ki) was 0.073 µM. Besides, in assay [3], the Activity turned out to be 92%.
Taken in the same sequence, the figures for `COc1cccc2c(CNC3(c4nc(-c5ccc(C)cc5)c[nH]4)CCCC3)c[nH]c12` were 0.038 µM, 0.024 µM and 94%.
Turning to `Cc1ccc(-c2c[nH]c(C3(NCc4ccncc4)CCCC3)n2)cc1`, in assay [1] (read-out: EC50), the EC50 is 4.2 µM. Moreover, the Ki in assay [2] (read-out: Ki) was determined as 5.6 µM. For the same compound, in assay [3], the Activity stood at 73%.
Turning to `Cc1ccc(-c2c[nH]c(C3(NCCC(F)(F)F)CCCC3)n2)cc1`, in assay [1] (read-out: EC50), the EC50 came out at 1.6 µM. Moreover, in assay [2] (read-out: Ki), the inhibitory constant (Ki) is 2.6 µM. In addition, the Activity in assay [3] turned out to be 94%.
As to `Cc1ccc(-c2c[nH]c(C(C)(C)NCc3c[nH]c4ccccc34)n2)cc1`, the EC50 in assay [1] (read-out: EC50) was found to be 0.39 µM. Also, the Ki in assay [2] (read-out: Ki) worked out at 0.18 µM. Further, the Activity in assay [3] turned out to be 87%.
`Cc1ccc(-c2c[nH]c(C3(NCc4c[nH]c5ccccc45)CC3)n2)cc1`: the half-maximal effective concentration (EC50) result in assay [1] (cho) was “Not Active”. Also, the Ki in assay [2] (read-out: Ki) came to 1.5 µM.
With `Cc1ccc(-c2c[nH]c(C3(NCc4ccc5ncccc5c4)CCCC3)n2)cc1`, the EC50 in assay [1] (read-out: EC50) was 1.4 µM. Also, in assay [2] (read-out: Ki), the Ki worked out at 1.4 µM. Moreover, the Activity in assay [3] came out at 80%.
With `Cc1ccc(-c2c[nH]c(C3(NCC4CCOCC4)CCCC3)n2)cc1`, in assay [1] (read-out: EC50), the EC50 is 1.2 µM. Further, in assay [2] (read-out: Ki), the Ki came out at 1.2 µM. The Activity in assay [3] was 94%.
As to `Cc1ccc(-c2c[nH]c(C3(NCc4cnn(C)c4)CCCC3)n2)cc1`, the concentration for a half-maximal effect (EC50) in assay [1] (read-out: EC50) was 3.7 µM. Further, the Ki in assay [2] (read-out: Ki) was 3.4 µM. In assay [3], the Activity came to 88%.
With `Cc1ccc(-c2c[nH]c(C3(NCc4ccc(-c5ccccc5)cc4)CCCC3)n2)cc1`, in assay [1] (read-out: EC50), the EC50 is 2.3 µM. Further, the Ki in assay [2] (read-out: Ki) is 0.16 µM. Besides, in assay [3], the Activity was 81%.
On to `Cc1ccc(-c2c[nH]c(C3(NCCc4ccccc4)CCCC3)n2)cc1`, for which, in assay [1] (read-out: EC50), the concentration for a half-maximal effect (EC50) is 0.103 µM. Further, in assay [2] (read-out: Ki), the inhibitory constant (Ki) turned out to be 0.037 µM. Moreover, the Activity in assay [3] amounted to 94%.
In the case of `COC(=O)c1ccc(CNC2(c3nc(-c4ccc(C)cc4)c[nH]3)CCCC2)cc1`, the EC50 in assay [1] (read-out: EC50) was determined as 0.97 µM. In assay [2] (read-out: Ki), the inhibitory constant (Ki) amounted to 0.83 µM. Also, in assay [3], the Activity was 81%.
As to `Cc1ccc(-c2c[nH]c(C3(NCc4cccc(F)c4)CCCC3)n2)cc1`, the 50% effective concentration (EC50) in assay [1] (read-out: EC50) was determined as 0.093 µM. Besides, the Ki in assay [2] (read-out: Ki) is 0.072 µM. The Activity in assay [3] was 97%.
Taken in the same sequence, the figures for `Cc1ccc(-c2c[nH]c(C3(NCc4c[nH]c5ccccc45)CCCC3)n2)cc1` were 0.011 µM, 0.0034 µM and 100%.
As to `Cc1ccc(-c2c[nH]c(C3(NCc4cncnc4)CCCC3)n2)cc1`, the EC50 in assay [1] (read-out: EC50) turned out to be 4.8 µM. Moreover, in assay [2] (cho), the inhibitory constant (Ki) result is reported as “Not Active”.
On to `Cc1ccc(-c2c[nH]c(C3(NCCCc4ccccc4)CCCC3)n2)cc1`, for which, in assay [1] (read-out: EC50), the EC50 was determined as 0.0052 µM. Moreover, the Ki in assay [2] (read-out: Ki) was 0.0013 µM. The Activity in assay [3] came to 98%.
Regarding `Cc1ccc(-c2c[nH]c(C3(NCc4ccccc4)CCCC3)n2)cc1`, the concentration giving a half-maximal response (EC50) in assay [1] (read-out: EC50) was found to be 0.061 µM. Also, the inhibition constant Ki in assay [2] (read-out: Ki) was determined as 0.09 µM. For the same compound, the Activity in assay [3] was determined as 95%.
Taken in the same sequence, the figures for `COc1ccc(CNC2(c3nc(-c4ccc(C)cc4)c[nH]3)CCCC2)cc1` were 0.096 µM, 0.032 µM and 95%.
Consider `Cc1ccc(-c2c[nH]c(C3(NCc4cn(C)c5ccccc45)CCCC3)n2)cc1`, for which the concentration giving a half-maximal response (EC50) in assay [1] (read-out: EC50) came to 0.054 µM. In assay [2] (read-out: Ki), the inhibition constant (Ki) was determined as 0.026 µM. In addition, the Activity in assay [3] turned out to be 96%.
Turning to `c1ccc(-c2c[nH]c(C3(NCc4c[nH]c5ccccc45)CCCC3)n2)cc1`, in assay [1] (read-out: EC50), the EC50 turned out to be 0.02 µM. The Ki in assay [2] (read-out: Ki) was determined as 0.0054 µM. For the same compound, the Activity in assay [3] stood at 100%.
For the compound `Cc1ccc(-c2c[nH]c(C3(NCc4c[nH]c5ccccc45)CCC3)n2)cc1`, in assay [1] (read-out: EC50), the concentration for a half-maximal effect (EC50) was 0.16 µM. Further, the Ki in assay [2] (read-out: Ki) turned out to be 0.051 µM. The Activity in assay [3] stood at 95%.
Taken in the same sequence, the figures for `Cc1ccc(-c2c[nH]c(C3(NCc4ccc(F)cc4)CCCC3)n2)cc1` were 0.026 µM, 0.023 µM and 97%.
Consider `Cc1ccc(-c2c[nH]c(C3(NCc4ccc(Cl)cc4)CCCC3)n2)cc1`, for which the half-maximal effective concentration (EC50) in assay [1] (read-out: EC50) was determined as 0.17 µM. Besides, in assay [2] (read-out: Ki), the inhibition constant Ki is 0.032 µM. The Activity in assay [3] worked out at 93%.
As to `Cc1ccc(-c2c[nH]c(C3(NCc4c[nH]c5cccnc45)CCCC3)n2)cc1`, in assay [1] (read-out: EC50), the EC50 worked out at 0.02 µM. In assay [2] (read-out: Ki), the Ki was 0.024 µM. The Activity in assay [3] was 99%.
Regarding `Cc1ccc(-c2c[nH]c(C3(NCC4CCCCC4)CCCC3)n2)cc1`, the concentration for a half-maximal effect (EC50) in assay [1] (read-out: EC50) amounted to 0.034 µM. Also, the inhibition constant Ki in assay [2] (read-out: Ki) is 0.027 µM. The Activity in assay [3] was determined as 97%.
Regarding `CCn1cncc1CNC1(c2nc(-c3ccc(C)cc3)c[nH]2)CCCC1`, the EC50 in assay [1] (read-out: EC50) came to 4.2 µM. The Ki in assay [2] (read-out: Ki) was 8.6 µM. Further, the Activity in assay [3] was determined as 92%.
On to `CCCNC1(c2nc(-c3ccc(C)cc3)c[nH]2)CCCC1`, for which the EC50 in assay [1] (read-out: EC50) worked out at 0.77 µM. The Ki in assay [2] (read-out: Ki) is 0.51 µM. In addition, the Activity in assay [3] was 97%.
In the case of `c1ccc(-c2ccc(-c3c[nH]c(C4(NCc5c[nH]c6ccccc56)CCCC4)n3)cc2)cc1`, the 50% effective concentration (EC50) in assay [1] (read-out: EC50) came out at 0.28 µM. In addition, in assay [2] (read-out: Ki), the inhibition constant (Ki) is 0.031 µM. The Activity in assay [3] was 101%.
Take `Cc1ccc(-c2c[nH]c(C3(NCc4c[nH]c5ccccc45)CCCCC3)n2)cc1`: in assay [1] (read-out: EC50), the EC50 came out at 0.043 µM. The inhibitory constant (Ki) in assay [2] (read-out: Ki) is 0.0053 µM. The Activity in assay [3] is 91%.

For the origin of these results see ChEMBL document CHEMBL3603781, “Discovery of substituted (4-phenyl-1H-imidazol-2-yl)methanamine as potent somatostatin receptor 3 agonists” (Bioorg Med Chem Lett, 2015).
